In ChEMBL document CHEMBL1201862, “PubChem BioAssay data set” (2004):
Active and inactive are the calls of the source. Unless noted, no cut-off for these calls is given here.

What was measured:
[1] = blockers of FN fibrillogenesis by fibroblasts – AH1F cells, Alexa488-FN fluorescence, cherry-picks, dose response (AID 1035475); assay type: functional, cell-based
[2] = biological target: T1, Caspase-6 (Homo sapiens, UniProt P55212); test: inhibition of CASP6 peptide cleavage – biochemical, VEID-R110 fluorescence, dry powder retest, dose response (AID 743332)
T1 sequence (P55212 whole entry): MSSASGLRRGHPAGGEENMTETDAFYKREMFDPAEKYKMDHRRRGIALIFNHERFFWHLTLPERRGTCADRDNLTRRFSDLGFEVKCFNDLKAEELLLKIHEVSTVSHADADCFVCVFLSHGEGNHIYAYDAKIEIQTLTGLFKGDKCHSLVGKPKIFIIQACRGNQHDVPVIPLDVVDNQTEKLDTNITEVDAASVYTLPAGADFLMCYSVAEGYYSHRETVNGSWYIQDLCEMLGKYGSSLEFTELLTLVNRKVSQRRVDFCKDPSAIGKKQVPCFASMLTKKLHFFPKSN

[3] = disruptors of Keap1 Kelch-Nrf2 peptide binding – biochemical, fluorescence polarization, dry powder samples, dose response (AID 651798)
[4] = disruptors of Keap1 Kelch-Nrf2 peptide binding – biochemical, fluorescence polarization, dry powder, set 2, dose response (AID 651801)
[5] = biological target: Potassium channel subfamily K member 9 (Homo sapiens, UniProt Q9NPC2); test: KCNK9 flux blockade, concentration-response – cell-based, FluxOR thallium flux, selectivity assay for TASK1 inhibitor project, SAR follow-up (AID 652211); assay type: functional;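 note: potency is for inhibitors of the channel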
Sequence of Potassium channel subfamily K member 9 (Q9NPC2 whole entry): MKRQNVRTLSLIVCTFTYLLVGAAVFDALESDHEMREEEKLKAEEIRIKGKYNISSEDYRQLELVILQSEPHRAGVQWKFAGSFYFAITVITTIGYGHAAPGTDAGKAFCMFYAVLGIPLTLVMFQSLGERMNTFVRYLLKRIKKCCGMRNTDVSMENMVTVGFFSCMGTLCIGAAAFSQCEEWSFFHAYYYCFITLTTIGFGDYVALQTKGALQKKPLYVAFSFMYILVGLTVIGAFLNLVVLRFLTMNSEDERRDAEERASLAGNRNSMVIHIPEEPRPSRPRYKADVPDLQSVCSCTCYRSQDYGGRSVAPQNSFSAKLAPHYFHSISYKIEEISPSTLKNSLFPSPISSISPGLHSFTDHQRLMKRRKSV

[6] = biological target: Potassium channel subfamily K member 3 (Homo sapiens, UniProt O14649); test: inhibition of human KCNK3 channel flux – CHO cells, FluxOR thallium flux, SAR follow-up (AID 652212); assay type: functional
Sequence of Potassium channel subfamily K member 3 (O14649 whole entry): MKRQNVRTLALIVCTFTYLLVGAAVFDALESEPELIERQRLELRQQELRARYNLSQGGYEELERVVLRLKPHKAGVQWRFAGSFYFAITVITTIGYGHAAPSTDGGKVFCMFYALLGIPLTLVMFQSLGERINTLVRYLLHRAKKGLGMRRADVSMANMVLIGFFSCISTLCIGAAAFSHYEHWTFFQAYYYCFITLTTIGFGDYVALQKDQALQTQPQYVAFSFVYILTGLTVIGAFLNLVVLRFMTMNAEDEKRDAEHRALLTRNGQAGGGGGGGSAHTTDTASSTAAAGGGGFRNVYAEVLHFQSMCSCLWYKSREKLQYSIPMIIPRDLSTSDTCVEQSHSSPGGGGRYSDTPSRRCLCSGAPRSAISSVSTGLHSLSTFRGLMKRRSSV

[7] = Cytotoxicity screening for potential Inhibitors of Bacterial Capsule Biogenesis (4).; assay type: functional
[8] = disruptors of Keap1/Nrf2 protein interaction – biochemical, fluorescence polarization, dry powder, set 3, dose response (AID 651806)
[9] = biological target: Delta-type opioid receptor (Homo sapiens, UniProt P41143); test: Late-stage results from the probe development effort to identify antagonists of OPRK1: fluorescence-based cell-based dose response OPRD1 counterscreen, Set 2.; assay type: functional
Sequence of Delta-type opioid receptor (P41143 whole entry): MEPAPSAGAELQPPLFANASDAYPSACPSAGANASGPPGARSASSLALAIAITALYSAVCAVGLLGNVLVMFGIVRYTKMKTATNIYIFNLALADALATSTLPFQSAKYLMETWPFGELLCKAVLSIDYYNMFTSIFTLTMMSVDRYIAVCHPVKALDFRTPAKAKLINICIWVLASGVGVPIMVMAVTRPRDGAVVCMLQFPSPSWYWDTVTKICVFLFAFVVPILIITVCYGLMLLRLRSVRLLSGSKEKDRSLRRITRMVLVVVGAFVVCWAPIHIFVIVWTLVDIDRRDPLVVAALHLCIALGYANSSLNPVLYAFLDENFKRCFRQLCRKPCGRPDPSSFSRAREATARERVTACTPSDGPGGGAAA

[10] = biological target: Sphingosine 1-phosphate receptor 1 (Homo sapiens, UniProt P21453); test: Late-stage counterscreen for antagonists of kappa opioid receptor 1 (OPRK1): fluorescence-based cell-based dose response assay to identify antagonists of Sphingosine 1-Phosphate Receptor 1 (S1P1).; assay type: functional
Sequence of Sphingosine 1-phosphate receptor 1 (P21453 whole entry): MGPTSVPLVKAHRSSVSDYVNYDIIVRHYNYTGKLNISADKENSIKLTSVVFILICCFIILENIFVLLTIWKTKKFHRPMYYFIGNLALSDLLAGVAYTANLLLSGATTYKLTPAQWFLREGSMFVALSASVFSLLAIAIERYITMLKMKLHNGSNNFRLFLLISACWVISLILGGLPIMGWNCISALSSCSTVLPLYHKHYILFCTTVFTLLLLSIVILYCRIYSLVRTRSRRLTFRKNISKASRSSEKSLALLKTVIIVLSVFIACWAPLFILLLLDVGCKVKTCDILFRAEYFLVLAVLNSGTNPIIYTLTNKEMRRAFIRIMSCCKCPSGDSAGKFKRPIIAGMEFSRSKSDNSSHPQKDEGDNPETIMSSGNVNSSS

[11] = biological target: Kappa-type opioid receptor (Homo sapiens, UniProt P41145); test: Late-stage fluorescence-based cell-based dose response assay for antagonists of kappa opioid receptor 1 (OPRK1).; assay type: functional
Sequence of Kappa-type opioid receptor (P41145 whole entry): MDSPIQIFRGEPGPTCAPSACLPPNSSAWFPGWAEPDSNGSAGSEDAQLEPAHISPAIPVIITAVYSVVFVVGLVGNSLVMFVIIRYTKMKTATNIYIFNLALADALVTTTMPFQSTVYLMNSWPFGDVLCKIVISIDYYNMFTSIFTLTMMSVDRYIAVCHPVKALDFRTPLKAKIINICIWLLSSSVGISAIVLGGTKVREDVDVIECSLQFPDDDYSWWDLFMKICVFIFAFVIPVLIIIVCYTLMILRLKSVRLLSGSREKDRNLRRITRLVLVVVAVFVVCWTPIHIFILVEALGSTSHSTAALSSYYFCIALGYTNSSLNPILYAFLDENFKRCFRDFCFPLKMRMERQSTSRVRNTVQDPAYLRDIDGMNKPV

[12] = biological target: Mu-type opioid receptor (Homo sapiens, UniProt P35372); test: Late-stage results from the probe development effort to identify antagonists of OPRK1: luminescence-based cell-based dose response OPRM1 counterscreen, Set 2.; assay type: functional
Sequence of Mu-type opioid receptor (P35372 whole entry): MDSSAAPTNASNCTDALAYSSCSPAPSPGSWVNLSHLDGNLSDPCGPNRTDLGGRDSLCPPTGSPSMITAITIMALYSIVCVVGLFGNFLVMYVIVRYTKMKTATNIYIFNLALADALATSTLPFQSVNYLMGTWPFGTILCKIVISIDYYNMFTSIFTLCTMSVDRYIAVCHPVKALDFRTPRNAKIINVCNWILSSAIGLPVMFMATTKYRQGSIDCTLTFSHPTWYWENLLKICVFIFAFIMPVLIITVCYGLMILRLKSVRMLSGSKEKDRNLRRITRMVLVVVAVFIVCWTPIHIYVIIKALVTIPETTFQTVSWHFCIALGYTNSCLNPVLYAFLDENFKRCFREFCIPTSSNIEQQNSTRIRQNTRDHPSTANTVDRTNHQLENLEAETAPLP

[13] = biological target: Metabotropic glutamate receptor 3 (Rattus norvegicus, UniProt P31422); test: inhibition of rat mGlu3 glutamate signaling – HEK/GIRK cells, thallium flux, dose response (AID 651839); assay type: functional
Sequence of Metabotropic glutamate receptor 3 (P31422 whole entry): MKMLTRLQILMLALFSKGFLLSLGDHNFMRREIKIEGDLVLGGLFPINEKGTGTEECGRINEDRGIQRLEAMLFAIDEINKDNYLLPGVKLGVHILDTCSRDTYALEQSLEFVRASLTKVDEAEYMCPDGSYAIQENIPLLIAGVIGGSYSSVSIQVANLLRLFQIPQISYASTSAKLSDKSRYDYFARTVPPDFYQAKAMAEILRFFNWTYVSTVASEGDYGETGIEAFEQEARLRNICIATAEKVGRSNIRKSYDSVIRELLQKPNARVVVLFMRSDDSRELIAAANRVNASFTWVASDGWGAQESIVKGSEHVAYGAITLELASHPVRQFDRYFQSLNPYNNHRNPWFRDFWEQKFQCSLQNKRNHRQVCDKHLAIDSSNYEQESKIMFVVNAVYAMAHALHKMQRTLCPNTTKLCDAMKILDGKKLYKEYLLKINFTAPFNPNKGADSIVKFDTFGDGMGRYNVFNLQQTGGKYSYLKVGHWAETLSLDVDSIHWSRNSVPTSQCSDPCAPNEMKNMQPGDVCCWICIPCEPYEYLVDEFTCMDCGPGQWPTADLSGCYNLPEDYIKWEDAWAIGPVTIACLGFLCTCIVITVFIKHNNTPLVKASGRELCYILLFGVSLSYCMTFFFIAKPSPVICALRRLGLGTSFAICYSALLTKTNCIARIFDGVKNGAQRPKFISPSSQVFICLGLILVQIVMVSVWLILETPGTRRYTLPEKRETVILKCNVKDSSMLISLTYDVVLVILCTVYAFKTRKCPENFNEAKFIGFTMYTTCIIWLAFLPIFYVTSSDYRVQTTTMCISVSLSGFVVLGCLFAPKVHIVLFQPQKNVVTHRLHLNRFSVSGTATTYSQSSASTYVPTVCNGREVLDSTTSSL

[14] = Late stage assay provider results from the probe development effort to identify inhibitors of the Plasmodium falciparum M18 Aspartyl Aminopeptidase (M18AAP): radiolabel-based cell-based dose response assay to identify compounds that inhibit P. falciparum growth in RBCs, Set 2..; assay type: functional
[15] = viability loss in CEM21 cells – cell-based, plate reader, dry powder, cytotoxicity control, dose response (AID 687026); assay type: functional
[16] = growth inhibition of replicating M. tuberculosis, dose response, counter-screen, dry powder, IC90 (AID 651617); assay type: functional; conditions: Mycobacterium tuberculosis
[17] = inhibitors of non-replicating M. tuberculosis, dose response, luciferase, dry powder (AID 651619); assay type: functional; conditions: Mycobacterium tuberculosis
[18] = inhibitors of non-replicating M. tuberculosis, dose response, luciferase, dry powder (AID 651620); assay type: functional; conditions: Mycobacterium tuberculosis
[19] = A549 cell cytotoxicity, dose response, cytotoxicity control, plate reader, cherry-pick, antagonist series (AID 743412); assay type: functional, cell-based
[20] = inhibition of bursicon-driven LGR2 cAMP signaling – cell-based, HEK293, CRE-luciferase reporter, cherry pick, dose response (AID 743342); assay type: functional
[21] = CTGF mRNA reduction in DLD1 cells – cell-based, DLD1 colon cancer, RT-qPCR, cherry-pick, dose response (AID 1053122); assay type: functional; conditions: Cancer cell lines

## N#Cc1ccc(-c2ccc3c(c2)[C@@H]2[C@@H](CCN2S(=O)(=O)c2ccccc2F)[C@H](CO)N3)cc1
[1]
  AC50: 24.5 µM (active)

## [O-][n+]1onc2c1CCc1c-2nn(-c2ccccc2)[n+]1[O-]
[2]
  AC50: 22.9 µM (active)

## O=C(O)C1CCCCC1C(=O)N1CCc2ccccc2C1CN1C(=O)c2ccccc2S1(=O)=O (stereo unspecified)
[3]
  AC50: 71.1 µM (active)
[4]
  AC50: 78.9 µM (active)

## CCOc1ccccc1NC(=O)c1cccc(NC(=O)C2CCCCC2)c1
[5]
  IC50: 1.3 µM (active)
[6]
  IC50: 67 nM (active)

## CC(C)(C)OC(=O)Nc1nc2ccc(C(=O)Nc3ccnc(F)c3)cc2s1
[7]
  CC50: > 300 µM (inactive)

## O=C(O)[C@H]1CCCC[C@H]1C(=O)N1CCc2ccccc2[C@H]1CNS(=O)(=O)c1ccc([N+](=O)[O-])cc1
[8]
  AC50: 88.3 µM (active)

## COC(=O)c1cc(-c2ccc(OC)cc2)c(-c2ccc(OC)cc2)s1
[9]
  IC50: 19.8 µM (inactive)
[10]
  IC50: > 50 µM (inactive)
[11]
  IC50: 1.58 µM (active)
[12]
  IC50: > 50 µM (inactive)

## Cc1cc2cc(C#Cc3ccc(C(=O)N4CCCC(CO)C4)cc3)ccc2o1 (stereo unspecified)
[13]
  IC50: 3.91 µM

## COc1cc(Br)c(CCNc2ccnc3ccccc23)cc1OC
[14]
  IC50: 450 nM (active)

## CCCOc1ccc(S(=O)(=O)NCc2ccncc2)c2ccccc12
[15]
  AC50: > 70 µM (inactive)

## Fc1ccc(-c2nnc(SCc3ccccn3)o2)cc1
[16]
  IC90: 62 µM (active)
[17]
  IC90: 4 µM (active)
[18]
  IC90: 4 µM (active)

## C[C@H](CO)N1C[C@H](C)[C@H](CN(C)C(=O)Nc2ccc(F)cc2)OCCCC[C@H](C)Oc2ccc(NC(=O)Nc3ccc(F)cc3)cc2C1=O
[19]
  AC50: > 47 µM (inactive)
[20]
  AC50: 16.1 µM (active)

## COc1ccccc1NC(=O)N1CCCCN2[C@@H](CO)[C@H](c3ccc(-c4cccc(C#N)c4)cc3)[C@@H]2C1
[21]
  AC50: 918 nM (active)
